Measurements taken from patent publication US6069143A, “Fibrinogen receptor antagonists” (SmithKline Beecham Corporation, priority 1996, dated 2000).

Target: T1, fibrinogen receptor (GPIIb-IIIa) (Homo sapiens, UniProt P05106+P08514)
T1 construct: Ten units of outdated, washed human platelets (obtained from Red Cross) were lyzed; from tissue; host or cells: outdated human platelets (Red Cross); GPIIb-IIIa purified on lentil lectin sepharose and incorporated in liposomes
Assay: Competitive binding to GPIIb-IIIa ([3H]-SK&F-107260 displacement, GPIIb-IIIa liposomes)
Conditions: purified human platelet GPIIb-IIIa in liposomes; 4.5 nM [3H]-SK&F-107260; Ki from IC50 by Cheng and Prusoff equation; read-out: Ki, inhibition of [3H]-SK&F 107260 binding
Protocol: Ten units of outdated, washed human platelets (obtained from Red Cross) were lyzed by gentle stirring in 3% octylglucoside, 20 mM Tris-HCl, pH 7.4, 140 mM NaCl, 2 mM CaCl2 at 4° C. for 2 h. The lysate was centrifuged at 100,000 g for 1 h. The supernatant obtained was applied to a 5 mL lentil lectin sepharose 4B column (E.Y. Labs) preequilibrated with 20 mM Tris-HCl, pH 7.4, 100 mM NaCl, 2 mM CaCl2, 1% octylglucoside (buffer A). After 2 h incubation, the column was washed with 50 mL cold buffer A. The lectin-retained GPIIb-IIIa was eluted with buffer A containing 10% dextrose. All procedures were performed at 4° C. The GPIIb-IIIa obtained was >95% pure as shown by SDS polyacrylamide gel electrophoresis. […]
The binding to the fibrinogen receptor (GPIIb-IIIa) was assayed by an indirect competitive binding method using [^3 H]-SK&F-107260 as an RGD-type ligand. […] Bound radioactivity remaining on the filters was counted in 1.5 mL Ready Solve (Beckman Instruments, Fullerton, Calif.) in a Beckman Liquid Scintillation Counter (Model LS6800), with 40% efficiency. Nonspecific binding was determined in the presence of 2 μg unlabeled SK&F-107260 and was consistently less than 0.14% of the total radioactivity added to the samples. […]
Competition binding data were analyzed by a nonlinear least-squares curve fitting procedure. […]

T1 sequence (P08514 32-887 limits assumed): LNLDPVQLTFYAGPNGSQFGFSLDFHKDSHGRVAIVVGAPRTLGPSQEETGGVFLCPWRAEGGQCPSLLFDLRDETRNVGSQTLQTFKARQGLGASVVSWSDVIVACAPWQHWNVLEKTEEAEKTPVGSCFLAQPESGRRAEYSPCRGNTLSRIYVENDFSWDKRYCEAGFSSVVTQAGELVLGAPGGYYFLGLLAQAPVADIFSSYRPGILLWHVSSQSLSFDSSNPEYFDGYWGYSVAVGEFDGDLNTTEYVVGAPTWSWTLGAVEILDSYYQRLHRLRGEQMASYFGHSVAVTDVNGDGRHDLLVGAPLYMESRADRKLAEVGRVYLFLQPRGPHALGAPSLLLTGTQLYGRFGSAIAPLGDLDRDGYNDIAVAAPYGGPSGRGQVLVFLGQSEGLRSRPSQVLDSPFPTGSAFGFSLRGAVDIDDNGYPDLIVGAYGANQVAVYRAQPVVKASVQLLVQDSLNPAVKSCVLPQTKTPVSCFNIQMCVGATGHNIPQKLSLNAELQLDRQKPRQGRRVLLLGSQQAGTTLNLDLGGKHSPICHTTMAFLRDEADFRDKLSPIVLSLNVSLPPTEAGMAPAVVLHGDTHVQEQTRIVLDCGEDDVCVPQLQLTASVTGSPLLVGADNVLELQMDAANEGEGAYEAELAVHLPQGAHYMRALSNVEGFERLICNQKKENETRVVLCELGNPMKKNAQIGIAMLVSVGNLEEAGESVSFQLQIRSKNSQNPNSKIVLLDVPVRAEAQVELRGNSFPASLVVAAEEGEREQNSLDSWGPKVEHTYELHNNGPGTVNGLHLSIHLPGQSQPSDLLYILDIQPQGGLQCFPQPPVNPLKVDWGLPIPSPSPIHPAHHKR
T1 sequence (P08514 891-1039 limits assumed): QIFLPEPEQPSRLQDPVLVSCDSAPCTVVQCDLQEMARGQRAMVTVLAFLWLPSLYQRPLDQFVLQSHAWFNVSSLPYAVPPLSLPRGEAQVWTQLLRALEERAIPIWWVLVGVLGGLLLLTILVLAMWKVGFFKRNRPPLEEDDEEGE
T1 sequence (P05106 27-788): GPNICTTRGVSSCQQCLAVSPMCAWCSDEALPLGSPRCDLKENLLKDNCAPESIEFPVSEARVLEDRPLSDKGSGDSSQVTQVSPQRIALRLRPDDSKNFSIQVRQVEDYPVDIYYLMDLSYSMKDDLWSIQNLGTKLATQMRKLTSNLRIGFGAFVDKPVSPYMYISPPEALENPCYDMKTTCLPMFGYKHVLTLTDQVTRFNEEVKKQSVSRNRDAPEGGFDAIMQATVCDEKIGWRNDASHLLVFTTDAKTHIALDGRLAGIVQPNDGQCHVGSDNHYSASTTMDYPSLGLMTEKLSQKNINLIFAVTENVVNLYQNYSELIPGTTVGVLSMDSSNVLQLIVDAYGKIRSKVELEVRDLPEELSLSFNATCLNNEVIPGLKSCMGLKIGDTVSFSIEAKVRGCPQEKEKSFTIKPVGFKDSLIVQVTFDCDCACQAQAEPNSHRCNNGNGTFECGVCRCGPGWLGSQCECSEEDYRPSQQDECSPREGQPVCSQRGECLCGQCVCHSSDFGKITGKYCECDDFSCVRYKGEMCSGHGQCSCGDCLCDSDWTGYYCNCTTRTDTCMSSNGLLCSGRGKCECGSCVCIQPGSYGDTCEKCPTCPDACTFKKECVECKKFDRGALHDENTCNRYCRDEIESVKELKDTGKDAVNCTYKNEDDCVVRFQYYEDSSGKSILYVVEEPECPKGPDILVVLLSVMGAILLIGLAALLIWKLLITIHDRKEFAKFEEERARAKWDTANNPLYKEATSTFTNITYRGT

With `O=C(O)CN1CCC(C(=O)Nc2ccc(N3CCNCC3)cc2)CC1` [Example 1, 4-[[[4-(1-piperazinyl)phenyl]amino]carbonyl]-1-piperidineacetic acid] the Ki was roughly 5 nM.
